The nature of data set [1]: Photostability: iodide formed after visible light irradiation. Format: physicochemical. As to conditions: 50 mM agent, 10 mM TRIS, pH 7.4, VIS 72 h. The protocol: Aqueous solutions comprising iodinated contrast agents were prepared and evaluated in a photolysis chamber as described in the ICH guidance document, Q1B Photostability Testing of New Drug Substances and Products, available from the US Food and Drug Administration, incorporated herein by reference. The solutions were placed in 1 cm×1 cm (3 mL) quartz cuvettes having 2 clear sides and 2 sides etched. Lids were placed on the cuvettes and sealed with a wrap of Parafilm® around the joint. The cuvettes were placed in a photolysis chamber, upright on a flat surface beneath and centered between two horizontal 24 inch fluorescent lamps, (GE, black light F20T12, 20 watt for ultraviolet, or Philips F20T12/CW, 20 watt for visible) placed 6 cm apart. The cuvettes were positioned such that their two clear sides were facing the two lamps.
Cuvettes were spaced ˜2 cm from each other, and no closer than 15 cm from the ends of the lamps. This positioning allowed reproducible light exposure to all cuvettes.
The lamps were switched on and the solutions irradiated for 18 to 24 hours for the ultraviolet (UV) lamps or 72 to 90 hours for the visible (VIS) light lamps. At the end of the selected irradiation time, the cuvettes were removed from the photolysis chamber and mixed by inversion 2-times. The caps were then removed and 40 microliter aliquots taken and diluted with 1 mL of an aqueous solution containing ˜0.9 mg/mL sodium thiosulfate. The thiosulfate solution converted any I2, IO3^−, and I3^− present in the solution tor such that total iodine species could be determined in one assay.
The diluted solutions were assayed by high pressure liquid chromatography (HPLC) using a 4.6×250 mm, C-18, 5 micron particle size, reversed phase column with detection at 280 nm for the contrast agent and 230 nm for the thiosulfate and the iodide ion (r). A mobile phase of 30:70 methanol:aqueous buffer (50 mM KH2PO4+7 mL/L 40% tetrabutyl ammonium hydroxide) at 0.75 mL/min was used for elution. Injection volume was 20 microliters. External standards were prepared containing each contrast agent, potassium iodide, and sodium thiosulfate solution and analyzed along with the irradiated samples. The results were reported as weight percentage iodide formed (mg iodide/mg contrast agent times 100).
The absorbance readings at 400 nm due to light exposure were plotted against time of exposure and the resulting correlation used to determine the UV and VIS light exposure. A change in absorbance reading of 0.45 was assumed equivalent to 200 watt hours/square meter for the UV light and a change of 0.51 was assumed equivalent to 1.2 million lux hours for the VIS light. The UV lamps provided 6.62 watts/square meter and the VIS lamps provided 7180 lux.
Aqueous solutions were prepared containing 473 mM iohexol (180 mg 1/mL), 10 mM tromethamine HCl buffer (TRIS), with and without various SCDs. The pH of the solutions was adjusted to 7.4 with 0.1N hydrochloric acid. Aliquots of the solutions were irradiated with ultraviolet (UV) light for 18 hours (119 watt hours/m^2) and other aliquots irradiated with visible (VIS) light for 90 hours (0.65 million lux hours). The solutions were then processed, analyzed and reported as in Example 2, with the exception that the iohexol peak was measured at 300 nm for both samples and standards. Results of the study are presented in the table below along with the SCD used. The SCDs included derivatives prepared from alpha, beta, and gamma CD to evaluate the effect of CD cavity size. Various substituents, including one derivative containing more than one type of substituent, and degrees of substitution (DS) were also evaluated.
Aqueous solutions were prepared containing 50 mM iodinated contrast agent, 10 mM tromethamine HCl buffer (TRIS), with and without sulfobutylether beta-cyclodextrin with an average degree of substitution-7 (SBE7-β-CD), or 2-hydroxypropyl beta-cyclodextrin with an average degree of substitution of ˜6.3 (HP6.3-β-CD) or ˜4.3 (HP4.3-β-CD). […]

Data set [2] is classed as physicochemical. The note with it: for Iodide formed: 50 mM agent, 10 mM TRIS, pH 7.4, autoclaved then UV 18 h.

Each structure is given as a SMILES string. Like-named read-outs stand apart in the source and are kept apart here.

Turning to `COCC(=O)Nc1c(I)c(C(=O)NCC(O)CO)c(I)c(C(=O)N(C)CC(O)CO)c1I` (centres unmarked) [Iopromide, iopromide], the Iodide formed in data set [1] (agent:SBE7-β-CD 1:0.1) came to 0.269 wt %; in data set [1] (no SCD (1:0)) it was 0.311 wt %; in data set [2] (agent:SBE7-β-CD 1:0.1), 0.330 wt %; in data set [2] (no SCD (1:0)), 0.487 wt %. Further, the “Iodide Formed, UV” value in data set [2] (Iopromide 150 mg I/mL, pH 7.4, agent:SBE7CD 1:0.05, autoclaved then UV 24 h) is recorded as 0.110 wt %; in data set [2] (Iopromide 150 mg I/mL, pH 7.4, no SCD (1:0), autoclaved then UV 24 h) it was 0.148 wt %; in data set [2] (Iopromide 240 mg I/mL, pH 7.4, agent:SBE7CD 1:0.05, autoclaved then UV 24 h), 0.113 wt %; in data set [2] (Iopromide 240 mg I/mL, pH 7.4, no SCD (1:0), autoclaved then UV 24 h) it was 0.129 wt %; in data set [2] (Iopromide 300 mg I/mL, pH 7.4, agent:SBE7CD 1:0.05, autoclaved then UV 24 h), 0.102 wt %; in data set [2] (Iopromide 300 mg I/mL, pH 7.4, no SCD (1:0), autoclaved then UV 24 h) it was 0.110 wt %. Further, the “Iodide Formed, UV” value in data set [2] (Iopromide 370 mg I/mL, pH 7.4, agent:SBE7CD 1:0.05, autoclaved then UV 24 h) is 0.0780 wt %; in data set [2] (Iopromide 370 mg I/mL, pH 7.4, no SCD (1:0), autoclaved then UV 24 h), 0.0989 wt %. The “Iodide Formed, VIS” value in data set [2] (Iopromide 150 mg I/mL, pH 7.4, agent:SBE7CD 1:0.05, autoclaved then VIS 72 h) is listed as 0.0671 wt %; in data set [2] (Iopromide 150 mg I/mL, pH 7.4, no SCD (1:0), autoclaved then VIS 72 h), 0.0735 wt %; in data set [2] (Iopromide 240 mg I/mL, pH 7.4, agent:SBE7CD 1:0.05, autoclaved then VIS 72 h), 0.0413 wt %; in data set [2] (Iopromide 240 mg I/mL, pH 7.4, no SCD (1:0), autoclaved then VIS 72 h), 0.0504 wt %; in data set [2] (Iopromide 300 mg I/mL, pH 7.4, agent:SBE7CD 1:0.05, autoclaved then VIS 72 h), 0.0426 wt %; in data set [2] (Iopromide 300 mg I/mL, pH 7.4, no SCD (1:0), autoclaved then VIS 72 h), 0.0493 wt %. The “Iodide Formed, VIS” value was 0.0351 wt % in data set [2] (Iopromide 370 mg I/mL, pH 7.4, agent:SBE7CD 1:0.05, autoclaved then VIS 72 h) and 0.0392 wt % in data set [2] (Iopromide 370 mg I/mL, pH 7.4, no SCD (1:0), autoclaved then VIS 72 h).

The record behind these values is US20220096664A1, “STABILIZED FORMULATIONS CONTAINING IODINATED CONTRAST AGENTS AND CYCLODEXTRINS” (Verrow Pharmaceuticals, Inc., priority 2012, published 2022).
